Experimental data as given in paper PMC8673761, “CLN7 is an organellar chloride channel regulating lysosomal function” (Science Advances, 2021).
Changes are numbered by the printed parent chain.

Tests used:
hCLN7 (EGFP-CLN7, MFSD8) [1] = target: T1, hCLN7 (EGFP-CLN7, MFSD8) (Homo sapiens, UniProt Q8NHS3); test: whole-endolysosomal patch clamp, Cl- current; type: cell-based
T1 construct: full length, 518 residues, N-terminal EGFP tag kept (pEGFP-C2); expressed in HEK293T (endolysosomes); PM-targeted mutant in HeLa
T1 sequence (Q8NHS3 1-518): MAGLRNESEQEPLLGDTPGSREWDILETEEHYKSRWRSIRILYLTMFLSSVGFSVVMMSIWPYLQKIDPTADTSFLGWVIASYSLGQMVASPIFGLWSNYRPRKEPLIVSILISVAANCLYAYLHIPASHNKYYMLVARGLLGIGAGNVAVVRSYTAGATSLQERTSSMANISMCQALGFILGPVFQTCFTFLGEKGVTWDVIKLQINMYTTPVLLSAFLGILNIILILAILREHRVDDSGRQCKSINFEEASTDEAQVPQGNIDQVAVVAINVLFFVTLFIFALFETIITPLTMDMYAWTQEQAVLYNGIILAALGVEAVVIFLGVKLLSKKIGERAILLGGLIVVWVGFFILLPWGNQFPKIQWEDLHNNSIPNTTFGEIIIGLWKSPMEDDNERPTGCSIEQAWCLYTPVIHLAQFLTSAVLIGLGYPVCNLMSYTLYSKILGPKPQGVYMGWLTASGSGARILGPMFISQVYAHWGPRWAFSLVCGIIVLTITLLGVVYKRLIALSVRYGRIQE

[2] = target: T2, YCR023C (yeast CLN7 homolog) (Saccharomyces cerevisiae, UniProt P25351); test: whole-cell patch clamp in HeLa, Cl- current; type: cell-based, Homo sapiens; details: EGFP-tagged; bath 150 mM HCl pH 4.6 (NMDG), pipette pH 7.2
T2 construct: full length, codon-optimised synthetic gene, N-terminal EGFP tag kept (pEGFP-C1); expressed in HeLa cells
T2 sequence (P25351 1-611): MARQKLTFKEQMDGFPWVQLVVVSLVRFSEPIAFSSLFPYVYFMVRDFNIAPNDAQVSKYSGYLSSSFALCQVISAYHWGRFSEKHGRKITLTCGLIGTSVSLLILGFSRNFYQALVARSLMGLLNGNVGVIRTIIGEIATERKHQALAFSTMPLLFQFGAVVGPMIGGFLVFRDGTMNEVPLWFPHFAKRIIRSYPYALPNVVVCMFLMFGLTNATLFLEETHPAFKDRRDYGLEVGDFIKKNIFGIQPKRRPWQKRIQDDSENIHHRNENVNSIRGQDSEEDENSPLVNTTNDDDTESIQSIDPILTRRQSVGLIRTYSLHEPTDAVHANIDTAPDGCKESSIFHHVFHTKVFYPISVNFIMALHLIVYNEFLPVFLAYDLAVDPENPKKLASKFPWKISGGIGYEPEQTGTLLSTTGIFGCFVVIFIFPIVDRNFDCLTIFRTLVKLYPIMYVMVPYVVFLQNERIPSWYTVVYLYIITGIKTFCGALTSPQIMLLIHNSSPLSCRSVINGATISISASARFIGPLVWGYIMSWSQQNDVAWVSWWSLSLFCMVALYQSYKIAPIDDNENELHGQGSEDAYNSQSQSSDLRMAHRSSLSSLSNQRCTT

hCLN7 (EGFP-CLN7, MFSD8) [3] = target: T3, hCLN7 (EGFP-CLN7, MFSD8) (Homo sapiens, UniProt Q8NHS3, L13A/L14A); test: whole-cell patch clamp in HeLa, Cl- current; type: cell-based; details: EGFP-tagged, plasma membrane-targeted; bath 150 mM HCl pH 4.6 (NMDG), pipette pH 7.2
T3 construct: full length, 518 residues, N-terminal EGFP tag kept (pEGFP-C2); expressed in HEK293T (endolysosomes); PM-targeted mutant in HeLa
T3 sequence (Q8NHS3 1-518 L13A/L14A): T1 sequence (Q8NHS3 1-518) with L13A, L14A

| IC50 (hCLN7 (EGFP-CLN7, MFSD8) [1]) | SMILES | whole-cell patch clamp in HeLa, Cl- current [2] | whole-cell patch clamp in HeLa, Cl- current (hCLN7 (EGFP-CLN7, MFSD8) [3]) |
| --- | --- | --- | --- |
| 0.0069 ± 0.00157 µM | O=C(O)c1cc([N+](=O)[O-])ccc1NCCCc1ccccc1 [NPPB, 5-Nitro-2-(3-phenylpropylamino)benzoic acid] | including outward rectification and sensitivities to DIDS, NFA, and NPPB | the whole-cell currents were also outward-rectifying and sensitive to pH, DIDS, NFA, and NPPB |
| 42.4 ± 7.13 µM | O=C(O)c1cccnc1Nc1cccc(C(F)(F)F)c1 [NFA] | including outward rectification and sensitivities to DIDS, NFA, and NPPB | the whole-cell currents were also outward-rectifying and sensitive to pH, DIDS, NFA, and NPPB |

| SMILES | IC50 (hCLN7 (EGFP-CLN7, MFSD8) [1]) | whole-cell patch clamp in HeLa, Cl- current [2] | whole-cell patch clamp in HeLa, Cl- current (hCLN7 (EGFP-CLN7, MFSD8) [3]) |
| --- | --- | --- | --- |
| O=S(=O)(O)c1cc(N=C=S)ccc1/C=C/c1ccc(N=C=S)cc1S(=O)(=O)O [DIDS, 4,4‘-diisothiocyano-2,2‘-stilbenedisulfonate] | 32.3 ± 6.08 µM | including outward rectification and sensitivities to DIDS, NFA, and NPPB |  |
